Assay type in all cases: biochemical
In one assay the target is Cathepsin L (Homo sapiens, UniProt P07711). Nature of the assay: Cathepsin L inhibition, fluorogenic peptide substrate kinetic assay (selectivity). To be noted: ratio of cathepsin L inhibition constant to cathepsin S inhibition constant.
Another assay concerns the target Cathepsin B (Homo sapiens, UniProt P07858). Nature of the assay: Cathepsin B inhibition, fluorogenic peptide substrate kinetic assay (selectivity).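 Further: value is the cathepsin B inhibition constant divided by the cathepsin S one, each from kinetic fluorescence readings (ex 380 nm, em 450 nm) of a 10 µM coumarin peptide substrate.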 The conditions noted are these: ratio of cathepsin B inhibition constant to cathepsin S inhibition constant.
Another assay has as its target Cathepsin S (Homo sapiens, UniProt P25774). Nature of the assay: Cathepsin S inhibition, fluorogenic peptide substrate kinetic assay.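 Further: cleavage rate of a coumarin-labelled peptide substrate (50 µM) read as fluorescence increase at Ex 380 nm and Em 450 nm, relative to inhibitor-free control reactions.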
A further assay has as its target T1, Cathepsin K (Homo sapiens, UniProt P43235).
T1 sequence (P43235 115-329): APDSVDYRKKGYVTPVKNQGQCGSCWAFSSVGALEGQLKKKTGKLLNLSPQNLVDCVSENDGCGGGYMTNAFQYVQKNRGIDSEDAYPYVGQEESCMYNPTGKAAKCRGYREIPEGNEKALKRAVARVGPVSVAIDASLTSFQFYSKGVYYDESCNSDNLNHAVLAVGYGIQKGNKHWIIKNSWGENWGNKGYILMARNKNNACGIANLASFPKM
Nature of the assay: Cathepsin K inhibition, fluorogenic peptide substrate kinetic assay (selectivity). To be noted: ratio of cathepsin K inhibition constant to cathepsin S inhibition constant.

Where [1] appears, read: Cathepsin S inhibition constant, pH5.5, 20 minutes preincubation at room temperature, read-out: Ki Cat. S.

Like-named read-outs stand apart in the source and are kept apart here.

Sequence of Cathepsin S (P25774 115-331, species assumed): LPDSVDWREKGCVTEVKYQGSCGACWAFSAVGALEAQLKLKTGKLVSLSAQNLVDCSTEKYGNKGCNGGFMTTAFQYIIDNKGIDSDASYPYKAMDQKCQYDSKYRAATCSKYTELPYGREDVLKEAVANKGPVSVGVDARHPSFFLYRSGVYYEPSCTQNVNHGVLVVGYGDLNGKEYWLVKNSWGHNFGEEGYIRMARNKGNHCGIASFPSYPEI
Sequence of Cathepsin L (P07711 114-333, species assumed): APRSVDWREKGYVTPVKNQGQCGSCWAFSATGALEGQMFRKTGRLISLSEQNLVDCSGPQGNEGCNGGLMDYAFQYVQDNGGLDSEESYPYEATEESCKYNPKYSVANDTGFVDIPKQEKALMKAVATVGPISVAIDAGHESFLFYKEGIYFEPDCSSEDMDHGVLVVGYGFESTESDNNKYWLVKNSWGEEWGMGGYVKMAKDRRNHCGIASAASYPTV

As usually defined, the Ki is the equilibrium dissociation constant of an inhibitor or competing ligand from its target. `O=C(NCCN1CCc2cc(F)ccc21)[C@H](CC1CCCCC1)NC(=O)N1CCOCC1` [Example 2, Morpholine-4-carboxylic acid {2-cyclohexyl-1-(S)-[2-(5-fluoro-2,3-dihydro-indol-1-yl)-ethylcarbamoyl]-ethyl}-amide]: the “Selectivity for Cat. S over Cat. L” value at Cathepsin L was “+ (+, >10)”. Besides, on Cathepsin B, the “Selectivity for Cat. S over Cat. B” value is on record as “+++ (+++, >1000)”. For the same compound, the Ki on Cathepsin S (setting [1]) is below 100 nM. Moreover, the “Selectivity for Cat. S over Cat. K” value at Cathepsin K is listed as “++ (++, >100)”.
Regarding `O=C(NCCNc1ccc(F)cc1)[C@H](CC1CCCCC1)NC(=O)N1CCOCC1` [Example 3, Morpholine-4-carboxylic acid {2-cyclohexyl-1-(S)-[2-(4-fluoro-phenylamino)-ethylcarbamoyl]-ethyl}-amide], the “Selectivity for Cat. S over Cat. L” value on Cathepsin L is “+ (+, >10)”. For the same compound, on Cathepsin B, the “Selectivity for Cat. S over Cat. B” value is recorded as “++ (++, >100)”. Besides, the Ki on Cathepsin S (setting [1]) is below 100 nM. Further, the “Selectivity for Cat. S over Cat. K” value on Cathepsin K is reported as “++ (++, >100)”.
`COc1ccc(NCCNC(=O)[C@H](CC2CCCCC2)NC(=O)N2CCOCC2)cc1` [Example 4, Morpholine-4-carboxylic acid {2-cyclohexyl-1-(S)-[2-(4-methoxy-phenylamino)-ethylcarbamoyl]-ethyl}-amide]: the “Selectivity for Cat. S over Cat. L” value on Cathepsin L is listed as “+ (+, >10)”. Besides, the “Selectivity for Cat. S over Cat. B” value at Cathepsin B is “+++ (+++, >1000)”. Besides, the Ki on Cathepsin S (setting [1]) is below 100 nM. Besides, on Cathepsin K, the “Selectivity for Cat. S over Cat. K” value is listed as “++ (++, >100)”.
As for `O=C(NCCNc1ccc(F)cc1)O[C@@H](CC1CCCCC1)C(=O)N1CCOCC1` [Example 5, [2-(4-Fluoro-phenylamino)-ethyl]-carbamic acid 1-(S)-cyclohexylmethyl-2-morpholin-4-yl-2-oxo-ethyl ester], the “Selectivity for Cat. S over Cat. L” value at Cathepsin L is given as “+ (+, >10)”. Besides, the “Selectivity for Cat. S over Cat. B” value at Cathepsin B is given as “+ (+, >10)”. Further, the Ki at Cathepsin S (setting [1]) lay within 1000 to 10000 nM. The “Selectivity for Cat. S over Cat. K” value at Cathepsin K is on record as “+ (+, >10)”.
On to `O=C(NCCNc1ccc(F)cc1)[C@@H](CC(=O)N1CCOCC1)CC1CCCCC1` [Example 6, 2-(R)-Cyclohexylmethyl-N-[2-(4-fluoro-phenylamino)-ethyl]-4-morpholin-4-yl-4-oxo-butyramide], for which the “Selectivity for Cat. S over Cat. L” value on Cathepsin L is on record as “+ (+, >10)”. Besides, on Cathepsin B, the “Selectivity for Cat. S over Cat. B” value is recorded as “+ (+, >10)”. The compound also yielded a Ki on Cathepsin S of 1000 to 10000 nM. Moreover, the “Selectivity for Cat. S over Cat. K” value at Cathepsin K was “+ (+, >10)”.
As for `CC1(C)CN([C@H]2COC[C@@H]2NC(=O)O[C@@H](CC2CCCCC2)C(=O)N2CCOCC2)c2ccc(F)cc21` [Example 7, [4-(R)-(5-Fluoro-3,3-dimethyl-2,3-dihydro-indol-1-yl)-tetrahydro-furan-3-(R)-yl]-carbamic acid 1-(S)-cyclohexylmethyl-2-morpholin-4-yl-2-oxo-ethyl ester], the “Selectivity for Cat. S over Cat. L” value at Cathepsin L was “+ (+, >10)”. The “Selectivity for Cat. S over Cat. B” value at Cathepsin B was “+ (+, >10)”. The Ki on Cathepsin S (setting [1]) was 1000 to 10000 nM. Besides, the “Selectivity for Cat. S over Cat. K” value at Cathepsin K is given as “+ (+, >10)”.
For `C[C@@H](CN1CCc2cc(F)ccc21)NC(=O)[C@@H](CC(=O)N1CCOCC1)CC1CCCCC1` [Example 8, 2-(R)-Cyclohexylmethyl-N-[2-(5-fluoro-2,3-dihydro-indol-1-yl)-1-(S)-methyl-ethyl]-4-morpholin-4-yl-4-oxo-butyramide], the “Selectivity for Cat. S over Cat. L” value at Cathepsin L was “++ (++, >100)”. Besides, the “Selectivity for Cat. S over Cat. B” value on Cathepsin B is given as “+++ (+++, >1000)”. Moreover, on Cathepsin S (setting [1]), the Ki was below 100 nM. Besides, the “Selectivity for Cat. S over Cat. K” value at Cathepsin K is reported as “++ (++, >100)”.
For the compound `O=C(C[C@@H](CC1CCCCC1)C(=O)N1CCOCC1)NCCNc1ccc(F)cc1` [Example 9, 3-(R)-Cyclohexylmethyl-N-[2-(4-fluoro-phenylamino)-ethyl]-4-morpholin-4-yl-4-oxo-butyramide], on Cathepsin L, the “Selectivity for Cat. S over Cat. L” value is “+ (+, >10)”. In addition, the “Selectivity for Cat. S over Cat. B” value on Cathepsin B was “+ (+, >10)”. Also, the inhibition constant (Ki) at Cathepsin S is 1000 to 10000 nM. For the same compound, the “Selectivity for Cat. S over Cat. K” value at Cathepsin K is given as “+ (+, >10)”.
In the case of `C[C@@H](CN1CCc2cc(F)ccc21)NC(=O)[C@H](CC1CCCCC1)OC(=O)N1CCOCC1` [Example 12, Morpholine-4-carboxylic acid 2-cyclohexyl-1-(S)-[2-(5-fluoro-2,3-dihydro-indol-1-yl)-1-(S)-methyl-ethylcarbamoyl]-ethyl ester], at Cathepsin L, the “Selectivity for Cat. S over Cat. L” value is on record as “+ (+, >10)”. The “Selectivity for Cat. S over Cat. B” value on Cathepsin B is recorded as “++ (++, >100)”. In addition, the Ki at Cathepsin S (setting [1]) is 100 to 1000 nM. The “Selectivity for Cat. S over Cat. K” value at Cathepsin K is “+ (+, >10)”.
With `O=C(NCCNc1ccc(OC(F)(F)F)cc1)[C@@H](CC(=O)N1CCOCC1)CC1CCCCC1` [Example 13, 2-(R)-Cyclohexylmethyl-4-morpholin-4-yl-4-oxo-N-[2-(4-trifluoromethoxy-phenylamino)-ethyl]-butyramide], the “Selectivity for Cat. S over Cat. L” value on Cathepsin L was “++ (++, >100)”. Besides, the “Selectivity for Cat. S over Cat. B” value on Cathepsin B was “++ (++, >100)”. Moreover, the Ki on Cathepsin S was in the range of 100 to 1000 nM. Moreover, the “Selectivity for Cat. S over Cat. K” value at Cathepsin K is listed as “++ (++, >100)”.
As for `C[C@@H](CNc1ccc(OC(F)(F)F)cc1)NC(=O)[C@@H](CC(=O)N1CCOCC1)CC1CCCCC1` [Example 14, 2-(R)-Cyclohexylmethyl-N-[1-(S)-methyl-2-(4-trifluoromethoxy-phenylamino)-ethyl]-4-morpholin-4-yl-4-oxo-butyramide], on Cathepsin L, the “Selectivity for Cat. S over Cat. L” value is “++ (++, >100)”. Also, the “Selectivity for Cat. S over Cat. B” value at Cathepsin B is listed as “+++ (+++, >1000)”. In addition, the Ki on Cathepsin S was below 100 nM. Moreover, the “Selectivity for Cat. S over Cat. K” value at Cathepsin K is on record as “++ (++, >100)”.
`C[C@@H](CNc1ccc(OC(F)(F)F)cc1)NC(=O)[C@@H](CC(=O)N1CCOCC1)CC1CCCC1` [Example 15, 2-(R)-Cyclopentylmethyl-N-[1-(S)-methyl-2-(4-trifluoromethoxy-phenylamino)-ethyl]-4-morpholin-4-yl-4-oxo-butyramide]: at Cathepsin L, the “Selectivity for Cat. S over Cat. L” value was “++ (++, >100)”. Also, the “Selectivity for Cat. S over Cat. B” value on Cathepsin B is recorded as “+++ (+++, >1000)”. The Ki at Cathepsin S was below 100 nM. For the same compound, on Cathepsin K, the “Selectivity for Cat. S over Cat. K” value is reported as “++ (++, >100)”.
In the case of `C[C@@H](CNc1ccc(OC(F)(F)F)cc1)NC(=O)[C@H](CC1CCCC1)[C@@H](C)C(=O)N1CCOCC1` [Example 16, 2-(R)-Cyclopentylmethyl-3-(R)-methyl-N-[1-(S)-methyl-2-(4-trifluoromethoxy-phenylamino)-ethyl]-4-morpholin-4-yl-4-oxo-butyramide], the “Selectivity for Cat. S over Cat. L” value at Cathepsin L is given as “+ (+, >10)”. Also, the “Selectivity for Cat. S over Cat. B” value on Cathepsin B was “++ (++, >100)”. For the same compound, the inhibition constant Ki at Cathepsin S (setting [1]) lay in the range of 100 to 1000 nM. For the same compound, the “Selectivity for Cat. S over Cat. K” value on Cathepsin K was “+ (+, >10)”.
On to `C[C@@H](CNc1ccc(OC(F)(F)F)cc1)NC(=O)[C@H](CS(=O)(=O)Cc1ccccc1)NC(=O)N1CCOCC1` [Example 18, Morpholine-4-carboxylic acid {1-(R)-[1-(S)-methyl-2-(4-trifluoromethoxy-phenylamino)-ethylcarbamoyl]-2-phenylmethanesulfonyl-ethyl}-amide], for which the “Selectivity for Cat. S over Cat. L” value at Cathepsin L is listed as “++ (++, >100)”. Besides, the “Selectivity for Cat. S over Cat. B” value at Cathepsin B is on record as “++ (++, >100)”. In addition, the Ki at Cathepsin S (setting [1]) is below 100 nM. Besides, on Cathepsin K, the “Selectivity for Cat. S over Cat. K” value is recorded as “+++ (+++, >1000)”.
For the compound `C[C@@H](CNc1ccc(OC(F)(F)F)cc1)NC(=O)[C@@H](CC(=O)N1CCOCC1)CC(C)(C)C` [Example 26, 4,4-Dimethyl-2-(R)-(2-morpholin-4-yl-2-oxo-ethyl)-pentanoic acid [1-(S)-methyl-2-(4-trifluoromethoxy-phenylamino)-ethyl]-amide], the “Selectivity for Cat. S over Cat. L” value on Cathepsin L is recorded as “++ (++, >100)”. Also, the “Selectivity for Cat. S over Cat. B” value on Cathepsin B is “++ (++, >100)”. For the same compound, the Ki at Cathepsin S fell in the range of 100 to 1000 nM.
On to `CC(C)[C@@H](CNc1ccc(OC(F)(F)F)cc1)NC(=O)[C@H](CCc1ccccc1)CC(=O)N1CCOCC1` [Example 32, N-{2-Methyl-1-(S)-[(4-trifluoromethoxy-phenylamino)-methyl]-propyl}-4-morpholin-4-yl-4-oxo-2-(R)-phenethyl-butyramide], for which, at Cathepsin L, the “Selectivity for Cat. S over Cat. L” value was “+ (+, >10)”. Besides, the “Selectivity for Cat. S over Cat. B” value at Cathepsin B is “+++ (+++, >1000)”. This compound also showed a Ki on Cathepsin S below 100 nM.
In the case of `C=CC[C@H](CC(=O)N1CCOCC1)C(=O)N[C@H](CNc1ccc(OC(F)(F)F)cc1)C(C)C` [Example 47, 2-(R)-(2-Morpholin-4-yl-2-oxo-ethyl)-pent-4-enoic acid {2-methyl-1-(S)-[(4-trifluoromethoxy-phenylamino)-methyl]-propyl}-amide], the “Selectivity for Cat. S over Cat. L” value at Cathepsin L is “+ (+, >10)”. Besides, the “Selectivity for Cat. S over Cat. B” value at Cathepsin B was “+ (+, >10)”. At Cathepsin S (setting [1]), the inhibitory constant (Ki) was 100 to 1000 nM.
Take `CC(C)[C@@H](CNc1ccc(OC(F)(F)F)cc1)NC(=O)[C@H](CC(=O)N1CCOCC1)c1ccc(S(C)(=O)=O)cc1` [Example 71, 2-(R)-(4-methanesulfonyl-phenyl)-N-{2-methyl-1-(S)-[(4-trifluoromethoxy-phenylamino)-methyl]-propyl}-4-morpholin-4-yl-4-oxo-butyramide]: the “Selectivity for Cat. S over Cat. L” value at Cathepsin L was “++ (++, >100)”. Further, the “Selectivity for Cat. S over Cat. B” value at Cathepsin B is listed as “+ (+, >10)”. Also, the Ki at Cathepsin S (setting [1]) fell in the range of 1000 to 10000 nM.
As for `C[C@@H](CNc1ccc(OC(F)F)cc1)NC(=O)O[C@@H](CC(C)(C)C)C(=O)N1CCOCC1` [Example 85, [2-(4-Difluoromethoxy-phenylamino)-1-(S)-methyl-ethyl]-carbamic acid 3,3-dimethyl-1-(S)-(morpholine-4-carbonyl)-butyl ester], the “Selectivity for Cat. S over Cat. L” value at Cathepsin L is on record as “+ (+, >10)”. In addition, the “Selectivity for Cat. S over Cat. B” value on Cathepsin B was “+ (+, >10)”. For the same compound, on Cathepsin S (setting [1]), the inhibitory constant (Ki) was in the range of 1000 to 10000 nM.

(Values after patent US7732449B2, “Inhibitors of cathepsin S” (IRM LLC, priority 2003, dated 2010).)
